In US20250360143A1, “COMPOSITIONS AND METHODS FOR PHA[…] OF STROKE AND […] REPERFUSION INJURY” (priority 2022, published 2025):
“Also recorded” adds a separate entry of the source. Structures can show the parent of a compound that is named as a salt. Where two headings read alike, the source gives them in different places.

How the values were obtained:
[1] = test system: C57B/6 mice, transient focal cerebral ischemia (MCAo); conditions: 1 mg/kg/day for 3 days from onset of acute stroke; previously shown; cited from earlier work
[2] = test system: 45 receptors, channels and transporters; test: Off-target binding at 45 receptors, channels and transporters (NIMH PDSP); conditions: at 10 μM
[3] = test system: C57B/6 mice, transient focal cerebral ischemia (MCAo); conditions: mouse, in vivo, 5 mg/kg/day
[4] = target: T1, hP2X1R (Homo sapiens, UniProt P51575); test: cell-based; conditions: for inhibition at 30 µM: CHO-K1, percent inhibition at 30 μM, agonist α,β-MeATP 1.0 μM, read-out: hP2X1R % inhib.
T1 construct: expressed in transfected cells; host or cells: CHO-K1
T1 sequence (P51575 1-399): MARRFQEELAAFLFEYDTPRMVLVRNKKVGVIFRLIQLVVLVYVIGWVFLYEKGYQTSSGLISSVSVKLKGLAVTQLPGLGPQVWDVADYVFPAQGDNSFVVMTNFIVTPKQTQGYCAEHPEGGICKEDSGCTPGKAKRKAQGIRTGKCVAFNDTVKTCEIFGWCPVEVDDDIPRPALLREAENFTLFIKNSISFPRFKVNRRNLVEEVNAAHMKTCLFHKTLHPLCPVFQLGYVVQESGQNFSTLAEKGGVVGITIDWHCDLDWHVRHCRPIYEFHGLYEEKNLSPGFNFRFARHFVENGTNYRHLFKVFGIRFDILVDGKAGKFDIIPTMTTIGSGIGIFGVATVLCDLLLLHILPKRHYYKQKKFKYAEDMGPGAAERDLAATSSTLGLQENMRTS

[5] = target: T2, hP2X2/3R (Homo sapiens, UniProt P56373+Q9UBL9); test: cell-based; type: cell-based; conditions: for inhibition at 30 µM: CHO-K1, percent inhibition at 30 μM, agonist α,β-MeATP 5.0 μM, read-out: hP2X2/3R % inhib.
T2 construct: expressed in transfected cells; host or cells: CHO-K1
T2 sequence (Q9UBL9 1-471): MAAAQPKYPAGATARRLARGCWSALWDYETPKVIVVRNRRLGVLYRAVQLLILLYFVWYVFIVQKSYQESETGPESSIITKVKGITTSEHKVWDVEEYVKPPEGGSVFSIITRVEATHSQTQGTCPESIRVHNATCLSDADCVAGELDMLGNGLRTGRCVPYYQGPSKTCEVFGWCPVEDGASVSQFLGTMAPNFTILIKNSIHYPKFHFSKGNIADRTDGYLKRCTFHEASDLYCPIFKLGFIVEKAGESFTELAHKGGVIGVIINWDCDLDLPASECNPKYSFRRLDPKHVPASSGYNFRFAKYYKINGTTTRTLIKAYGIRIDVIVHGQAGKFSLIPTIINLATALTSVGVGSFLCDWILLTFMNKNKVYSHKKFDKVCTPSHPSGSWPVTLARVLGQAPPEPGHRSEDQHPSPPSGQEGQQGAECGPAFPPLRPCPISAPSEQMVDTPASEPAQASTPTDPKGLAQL
T2 sequence (P56373 1-397): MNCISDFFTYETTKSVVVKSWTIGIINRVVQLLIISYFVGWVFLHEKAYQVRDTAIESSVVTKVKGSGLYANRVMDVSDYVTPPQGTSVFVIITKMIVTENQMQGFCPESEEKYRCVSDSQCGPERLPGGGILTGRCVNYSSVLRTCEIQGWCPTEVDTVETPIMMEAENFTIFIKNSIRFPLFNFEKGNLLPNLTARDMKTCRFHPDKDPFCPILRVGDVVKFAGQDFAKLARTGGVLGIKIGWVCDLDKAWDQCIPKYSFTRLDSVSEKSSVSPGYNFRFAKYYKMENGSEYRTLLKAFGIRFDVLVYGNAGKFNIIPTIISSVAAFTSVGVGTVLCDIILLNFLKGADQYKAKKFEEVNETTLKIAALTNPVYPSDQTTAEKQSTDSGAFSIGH

[6] = target: T3, hP2X3R (Homo sapiens, UniProt P56373); test: cell-based; type: cell-based; conditions: for inhibition at 30 µM: CHO-K1, percent inhibition at 30 μM, agonist α,β-MeATP 1.0 μM, read-out: hP2X3R % inhib.
T3 construct: expressed in transfected cells; host or cells: CHO-K1
T3 sequence (P56373 1-397): T2 sequence (P56373 1-397)

[7] = target: T4, hP2X4R (Homo sapiens, UniProt Q99571); test: cell-based; type: cell-based
T4 construct: expressed in transfected cells; host or cells: HEK-293
T4 sequence (Q99571 1-388): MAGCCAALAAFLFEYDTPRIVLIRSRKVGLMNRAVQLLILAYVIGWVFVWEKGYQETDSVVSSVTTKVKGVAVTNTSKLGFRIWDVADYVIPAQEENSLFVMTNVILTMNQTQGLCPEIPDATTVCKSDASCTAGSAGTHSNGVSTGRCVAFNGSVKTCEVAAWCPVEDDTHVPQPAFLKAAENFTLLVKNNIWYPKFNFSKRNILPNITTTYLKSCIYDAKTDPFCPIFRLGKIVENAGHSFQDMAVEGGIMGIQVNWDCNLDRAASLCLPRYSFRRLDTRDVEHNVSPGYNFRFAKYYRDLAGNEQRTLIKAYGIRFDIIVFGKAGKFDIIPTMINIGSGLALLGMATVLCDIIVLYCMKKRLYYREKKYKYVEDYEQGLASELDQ

[8] = target: T5, mP2X4R (Mus musculus, UniProt Q9JJX6); conditions: compared with hP2X4R; cited from earlier work
T5 sequence (Q9JJX6 1-388): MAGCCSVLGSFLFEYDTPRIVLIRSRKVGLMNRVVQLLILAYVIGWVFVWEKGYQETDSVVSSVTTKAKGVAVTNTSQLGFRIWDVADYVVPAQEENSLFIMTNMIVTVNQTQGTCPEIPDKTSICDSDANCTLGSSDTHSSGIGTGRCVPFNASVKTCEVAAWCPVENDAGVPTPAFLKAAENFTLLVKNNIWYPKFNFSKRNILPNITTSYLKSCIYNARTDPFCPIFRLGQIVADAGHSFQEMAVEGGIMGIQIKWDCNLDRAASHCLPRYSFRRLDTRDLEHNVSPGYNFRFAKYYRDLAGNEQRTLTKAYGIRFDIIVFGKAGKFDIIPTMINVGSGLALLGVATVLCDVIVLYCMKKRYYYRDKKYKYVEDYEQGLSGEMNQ

[9] = test system: mouse; conditions: cited from earlier work

SMILES | inhibition at 30 µM [4] | inhibition at 30 µM [5] | inhibition at 30 µM [6] | IC50 ([7]; agonist CTP 10 μM (~EC80)) | other results
O=C1CN=C(c2cccc(Br)c2)c2oc3ccccc3c2N1 [Compound 5-BDBD, 5-(3-bromophenyl)-1,3-dihydro-2H-benzofuro[3,2-e]-1,4-diazepin-2-one] | – | – | – | – | stroke infarct size [1]: reduced stroke infarct size
Cc1ccc2c3c(ccc2c1)N(c1cccc(-c2noc(=S)[nH]2)c1)C(=O)CC(=O)N3 [Compound 21c, 9-Methyl-5-(3-(5-thioxo-4,5-dihydro-1,2,4-oxadiazol-3-yl)phenyl)-1,5-dihydro-2H-naphtho[1,2-b][1,4]diazepine-2,4(3H)-dione] | – | – | – | – | off-target interactions at 45 receptors, channels and transporters [2]: no significant interactions; cortical infarct volume alone [3]: not statistically significant; striatal infarct volume alone [3]: not statistically significant; total hemispheric infarct volume [3]: moderate but significant decrease; also recorded: reduced total hemispheric infarct volume
O=C1CC(=O)N(c2cccc(-c3noc(=S)[nH]3)c2)c2cc(Br)c3ccccc3c2N1 [Compound 21d, 7-Bromo-5-(3-(5-thioxo-4,5-dihydro-1,2,4-oxadiazol-3-yl)phenyl)-1,5-dihydro-2H-naphtho[1,2-b][1,4]diazepine-2,4(3H)-dione triethylamine salt] | – | – | – | – | off-target interactions at 45 receptors, channels and transporters [2]: no significant interactions
CCCCC#Cc1cc2c(c3ccccc13)NC(=O)CC(=O)N2c1cccc(-c2noc(=S)[nH]2)c1 [Compound 21o, 7-(Hex-1-yn-1-yl)-5-(3-(5-thioxo-4,5-dihydro-1,2,4-oxadiazol-3-yl)phenyl)-1,5-dihydro-2H-naphtho[1,2-b][1,4]diazepine-2,4(3H)-dione] | 16% | 1% | 18% | – | inhibition at 30 µM ([7]; HEK293, read-out: hP2X4R % inhib.): 15%
CCc1cc2c(c3ccccc13)NC(=O)CC(=O)N2c1cccc(-c2noc(=S)[nH]2)c1 [Compound 21p, 7-Ethyl-5-(3-(5-thioxo-4,5-dihydro-1,2,4-oxadiazol-3-yl)phenyl)-1,5-dihydro-2H-naphtho[1,2-b][1,4]diazepine-2,4(3H)-dione triethylamine salt] | 6% | 10% | 6% | 5.13 µM | –
CCN(CC)CC.NCc1ccc2ccc3c(c2c1)NC(=O)CC(=O)N3c1cccc(-c2noc(=S)[nH]2)c1 [Compound 21q, 10-(Aminomethyl)-5-(3-(5-thioxo-4,5-dihydro-1,2,4-oxadiazol-3-yl)phenyl)-1,5-dihydro-2H-naphtho[1,2-b][1,4]diazepine-2,4(3H)-dione triethylamine salt] | – | – | – | – | hP2X1R % inhib. [4]: 8%; hP2X2/3R % inhib. [5]: 0%; hP2X3R % inhib. [6]: 9%; hP2X4R % inhib. [7]: 9%
Cc1cc(-c2noc(=S)[nH]2)cc(N2C(=O)CC(=O)Nc3c2ccc2ccccc32)c1 [Compound 21r, 5-(3-Methyl-5-(5-thioxo-4,5-dihydro-1,2,4-oxadiazol-3-yl)phenyl)-1,5-dihydro-2H-naphtho[1,2-b][1,4]diazepine-2,4(3H)-dione] | 16% | 5% | 12% | 14 µM | –
O=C1CC(=O)N(c2cc(-c3noc(=S)[nH]3)ccn2)c2ccc3ccccc3c2N1 [Compound 21s, 5-(4-(5-Thioxo-4,5-dihydro-1,2,4-oxadiazol-3-yl)pyridin-2-yl)-1,5-dihydro-2H-naphtho[1,2-b][1,4]diazepine-2,4(3H)-dione triethylamine salt] | 18% | -6% | 18% | 13.5 µM | hP2X4R inhibitory activity relative to 22a, in words [7]: reduce
O=C1CC(=O)N(c2cncc(-c3noc(=S)[nH]3)c2)c2ccc3ccccc3c2N1 [Compound 21t, 5-(5-(5-Thioxo-4,5-dihydro-1,2,4-oxadiazol-3-yl)pyridin-3-yl)-1,5-dihydro-2H-naphtho[1,2-b][1,4]diazepine-2,4(3H)-dione triethylamine salt] | 15% | 25% | 6% | 14.6 µM | hP2X4R inhibitory activity relative to 22a, in words [7]: reduce
O=C1CC(=O)N(c2cccc(-c3noc(=S)[nH]3)n2)c2ccc3ccccc3c2N1 [Compound 21v, 5-(6-(5-Thioxo-4,5-dihydro-1,2,4-oxadiazol-3-yl)pyridin-2-yl)-1,5-dihydro-2H-naphtho[1,2-b][1,4]diazepine-2,4(3H)-dione triethylamine salt] | ≤ 31% | 15% | 17% | 6.48 µM | hP2X4R inhibitory activity relative to 22a, in words [7]: reduce
O=C1CC(=O)N(c2cccc(-c3noc(=S)[nH]3)c2)c2ccc3ccccc3c2N1.[Na] [Compound 22a, 5-(3-(5-Thioxo-4,5-dihydro-1,2,4-oxadiazol-3-yl)phenyl)-1,5-dihydro-2H-naphtho[1,2-b][1,4]diazepine-2,4(3H)-dione sodium salt] | – | – | – | – | off-target interactions at 45 receptors, channels and transporters [2]: no significant interactions; potency in blocking mP2X4R effects in vitro [8]: as potent in blocking mP2X4R effects in vitro as at hP2X4R; in vivo efficacy in the mouse [9]: considerable in vivo efficacy
CCN(CC)CC.O=C1CC(=O)N(c2cccc(-c3noc(=S)[nH]3)c2)c2cc(-c3ccccc3)c3ccccc3c2N1 [Compound 211, 7-Phenyl-5-(3-(5-thioxo-4,5-dihydro-1,2,4-oxadiazol-3-yl)phenyl)-1,5-dihydro-2H-naphtho[1,2-b][1,4]diazepine-2,4(3H)-dione triethylamine salt] | – | – | – | – | hP2X1R % inhib. [4]: 14%; hP2X2/3R % inhib. [5]: 10%; hP2X3R % inhib. [6]: 11%; IC50 [7]: 20.7 µM
